Among the data in patent US9714247B2, “Multiple kinase pathway inhibitors” (Mannkind Corporation, priority 2012, dated 2017) are EC50 and IC50 values, retold here.

One assay has as its system DoHH2. Kind of assay: CellTiter-Glo proliferation/viability assay. Format: cell-based, human. The settings on record: Homo sapiens, read-out: DoHH2 EC50. On the technique in general: ATP-based viability assays read luminescence as a measure of living cells.
The next assay concerns Ramos. Kind of assay: CellTiter-Glo proliferation/viability assay. Format: cell-based, human.
In a further assay the target is Src (Homo sapiens (Human), UniProt P12931). Conditions: read-out: Src IC50.
Src, sequence (P12931 whole entry, looked up): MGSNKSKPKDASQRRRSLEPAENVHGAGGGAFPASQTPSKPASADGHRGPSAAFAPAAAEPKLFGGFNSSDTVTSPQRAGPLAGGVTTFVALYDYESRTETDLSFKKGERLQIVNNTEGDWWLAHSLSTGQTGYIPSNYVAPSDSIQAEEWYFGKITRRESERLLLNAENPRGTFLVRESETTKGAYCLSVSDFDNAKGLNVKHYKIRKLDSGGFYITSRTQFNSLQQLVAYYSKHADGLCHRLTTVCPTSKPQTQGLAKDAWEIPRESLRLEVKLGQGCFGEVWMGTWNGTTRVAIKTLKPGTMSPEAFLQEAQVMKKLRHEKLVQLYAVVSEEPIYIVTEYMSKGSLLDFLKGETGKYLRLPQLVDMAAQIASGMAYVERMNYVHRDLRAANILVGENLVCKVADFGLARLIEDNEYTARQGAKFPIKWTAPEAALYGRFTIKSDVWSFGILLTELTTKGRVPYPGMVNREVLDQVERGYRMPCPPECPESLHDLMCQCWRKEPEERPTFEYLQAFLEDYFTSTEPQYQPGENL
Assay [1] has as its target T1, Lyn (Homo sapiens (Human), UniProt P07948). Briefly: biochemical.
The target in a further assay is BTK (Homo sapiens (Human), UniProt Q06187).
BTK, sequence (Q06187 whole entry): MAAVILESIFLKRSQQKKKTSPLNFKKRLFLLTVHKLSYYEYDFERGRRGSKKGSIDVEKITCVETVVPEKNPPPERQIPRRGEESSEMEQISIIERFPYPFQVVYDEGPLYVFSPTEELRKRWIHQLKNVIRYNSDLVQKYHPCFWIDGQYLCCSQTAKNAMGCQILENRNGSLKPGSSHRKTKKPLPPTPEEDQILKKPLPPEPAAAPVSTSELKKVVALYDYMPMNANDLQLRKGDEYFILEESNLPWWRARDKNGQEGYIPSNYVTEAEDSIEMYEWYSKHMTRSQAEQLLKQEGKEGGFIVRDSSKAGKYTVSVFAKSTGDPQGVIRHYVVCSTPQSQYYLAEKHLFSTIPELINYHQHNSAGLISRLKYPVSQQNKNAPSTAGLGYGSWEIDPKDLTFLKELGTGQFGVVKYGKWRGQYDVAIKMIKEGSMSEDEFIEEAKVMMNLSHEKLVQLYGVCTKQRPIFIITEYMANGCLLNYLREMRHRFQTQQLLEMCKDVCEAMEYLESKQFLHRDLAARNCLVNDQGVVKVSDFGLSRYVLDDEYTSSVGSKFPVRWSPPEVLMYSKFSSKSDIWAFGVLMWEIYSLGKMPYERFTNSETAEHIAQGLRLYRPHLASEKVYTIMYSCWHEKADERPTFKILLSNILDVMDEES
Assay [2] addresses T1, Lyn. Conditions: read-out: Lyn IC50.
Where [3] appears, read: Homo sapiens, Ramos; 48 hrs; read-out: Ramos EC50.
The mark [4] stands for this setting: Homo sapiens, Ramos, 48 h; read-out: Ramos EC50.

Read-outs that look alike come from different tables or passages of the source.

T1 sequence (P07948 whole entry): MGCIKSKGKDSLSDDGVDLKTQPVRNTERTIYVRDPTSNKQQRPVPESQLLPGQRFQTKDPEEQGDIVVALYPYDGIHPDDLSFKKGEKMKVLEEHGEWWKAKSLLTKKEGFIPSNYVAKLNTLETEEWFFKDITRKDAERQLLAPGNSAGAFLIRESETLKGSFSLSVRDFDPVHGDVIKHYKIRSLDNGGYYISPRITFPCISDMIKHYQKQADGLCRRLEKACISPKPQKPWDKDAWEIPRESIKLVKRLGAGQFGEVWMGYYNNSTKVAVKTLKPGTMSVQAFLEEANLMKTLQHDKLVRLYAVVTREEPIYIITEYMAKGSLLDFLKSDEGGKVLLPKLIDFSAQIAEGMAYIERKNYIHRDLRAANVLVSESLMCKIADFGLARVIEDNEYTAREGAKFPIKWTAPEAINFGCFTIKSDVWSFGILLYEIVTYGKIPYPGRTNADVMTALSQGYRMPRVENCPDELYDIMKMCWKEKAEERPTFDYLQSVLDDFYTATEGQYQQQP

For `CCn1c(=O)c(-c2nccs2)cc2cnc(Nc3ccc(C)cn3)cc21` [Compound 68], the EC50 (as a rule, the concentration at which the effect is half-maximal) in the assay on DoHH2 (DOHH-2, 48 hrs) was 1 to 10 µM; in the assay on Ramos (setting [3]), more than 10 µM. The IC50 – broadly, the concentration at which inhibition is half-maximal – on Src is more than 5 µM; at Lyn [1] it was 1 to 5 µM; on BTK (read-out: BTK IC50), more than 5 µM.

Turning to `CCN(CC)CCOc1ccc(Nc2cc3c(cn2)cc(-c2ccccc2)c(=O)n3C)nc1` [Compound 15, 7-[5-(2-Diethylamino-ethoxy)-pyridin-2-ylamino]-1-methyl-3-phenyl-1H-[1,6]naphthyridin-2-one], the EC50 with DoHH2 (DOHH-2, 48 hrs) is less than 1 µM; in the assay on Ramos (setting [3]), 1 to 10 µM. In addition, the IC50 on Src is less than 0.1 µM; against Lyn [1], 0.1 to 1 µM; at BTK (read-out: BTK IC50), less than 0.1 µM.

As to `CCN(CC)CCOc1ccc(Nc2cc3c(cn2)cc(-c2ccccc2Cl)c(=O)n3CC)nc1` [Compound 106, 3-(2-chlorophenyl)-7-((5-(2-(diethylamino)-ethoxy)pyridin-2-yl)amino)-1-ethyl-1,6-naphthyridin-2(1H)-one], the EC50 was less than 1 µM in the assay with DoHH2 (DOHH-2, 48 hrs) and more than 10 µM in the assay with Ramos (setting [3]). Besides, the IC50 on Src is more than 5 µM; against Lyn [1], 0.1 to 1 µM; on BTK (read-out: BTK IC50), less than 0.1 µM.

Take `CN(C)CCCn1c(=O)c(-c2c(F)cccc2F)cc2cnc(Nc3ccc(F)cn3)cc21` [Compound 130, 3-(2,6-difluorophenyl)-1-(3-(dimethylamino)propyl)-7-((5-fluoropyridin-2-yl)amino)-1,6-naphthyridin-2(1H)-one]: the EC50 was less than 1 µM in the assay on DoHH2 (DOHH-2, 48 hrs) and 1 to 10 µM in the assay with Ramos (setting [3]). In addition, the IC50 at Src, at Lyn [2] and on BTK (read-out: BTK IC50) was less than 0.1 µM in each case.

Consider `CCn1c(=O)c(-c2cc(SC)ccc2F)cc2cnc(Nc3ccc(N(C)C4CCN(C)CC4)cn3)cc21` [Compound 116, 1-ethyl-3-(2-fluoro-5-(methylthio)phenyl)-7-((5-(methyl(1-methylpiperidin-4-yl)amino)pyridin-2-yl)amino)-1,6-naphthyridin-2(1H)-one], for which the EC50 is less than 1 µM with DoHH2 (DOHH-2, 48 h) and 1 to 10 µM in the assay with Ramos (Homo sapiens, Ramos, 48 h, read-out: Ramos EC50). At Lyn [1], this compound had an IC50 of less than 0.1 µM.

As to `CCn1c(=O)c(C(C)C)cc2cnc(Nc3ccc(C)cn3)cc21` [Compound 13, 1-Ethyl-3-isopropyl-7-(5-methyl-pyridin-2-ylamino)-1H-[1,6]naphthyridin-2-one], the EC50 in the assay on DoHH2 (DOHH-2, 48 hrs) lay within 1 to 10 µM; with Ramos (setting [4]), 1 to 10 µM. The IC50 at Src is more than 5 µM; at Lyn [2], more than 5 µM; against BTK, 1 to 5 µM.

For the compound `CCN(CC)CCOc1ccc(Nc2cc3c(cn2)cc(-c2c(F)ccc(Cl)c2F)c(=O)n3CC)nc1` [Compound 97, 3-(3-chloro-2,6-difluorophenyl)-7-((5-(2-(diethylamino)ethoxy)pyridin-2-yl)amino)-1-ethyl-1,6-naphthyridin-2(1H)-one], the EC50 in the assay on DoHH2 (DOHH-2, 48 hrs) is less than 1 µM; in the assay with Ramos (setting [4]), 1 to 10 µM. Moreover, the IC50 at Src is less than 0.1 µM; at Lyn [2], less than 0.1 µM; on BTK it was 0.1 to 1 µM.

Regarding `CCn1c(=O)c(-c2c(Cl)cccc2Cl)cc2cnc(Nc3ccc(N(C)C4CCN(C)CC4)cn3)cc21` [Compound 121, 3-(2,6-dichlorophenyl)-1-ethyl-7-((5-(methyl(1-methylpiperidin-4-yl)amino)pyridin-2-yl)amino)-1,6-naphthyridin-2(1H)-one], the EC50 is less than 1 µM in the assay on DoHH2 (DOHH-2, 48 hrs) and 1 to 10 µM in the assay on Ramos (setting [4]). Also, the IC50 at Src, on Lyn [2] and at BTK (read-out: BTK IC50) was less than 0.1 µM each time.

`CCn1c(=O)c(-c2c(F)cccc2OC)cc2cnc(Nc3ccc(N(C)C4CCN(C)CC4)cn3)cc21` [Compound 118, 1-ethyl-3-(2-fluoro-6-methoxyphenyl)-7-((5-(methyl(1-methylpiperidin-4-yl)amino)pyridin-2-yl)amino)-1,6-naphthyridin-2(1H)-one]: the EC50 with DoHH2 (DOHH-2, 48 hrs) was less than 1 µM; with Ramos (setting [4]), 1 to 10 µM. Moreover, the IC50 at Src, on Lyn [2] and at BTK (read-out: BTK IC50) was less than 0.1 µM in each case.

Regarding `CCn1c(=O)c(-c2c(Cl)cccc2Cl)cc2cnc(Nc3ccc(F)cn3)cc21` [Compound 76, 3-(2,6-dichlorophenyl)-1-ethyl-7-((5-fluoropyridin-2-yl)amino)-1,6-naphthyridin-2(1H)-one], the EC50 in the assay with DoHH2 (DOHH-2, 48 hrs) is less than 1 µM; with Ramos (setting [4]) it was more than 10 µM. For the same compound, the IC50 at Src is less than 0.1 µM; at Lyn [2], less than 0.1 µM; on BTK it was 0.1 to 1 µM.

`CN1CCN(CCCn2c(=O)c(-c3c(F)cccc3F)cc3cnc(Nc4ccc(F)cn4)cc32)CC1` [Compound 132, 3-(2,6-difluorophenyl)-7-((5-fluoropyridin-2-yl)amino)-1-(3-(4-methylpiperazin-1-yl)propyl)-1,6-naphthyridin-2(1H)-one]: the EC50 in the assay with DoHH2 (DOHH-2, 48 hrs) is less than 1 µM; in the assay on Ramos (setting [3]), more than 10 µM. In addition, the IC50 at Src, on Lyn [2] and on BTK (read-out: BTK IC50) was less than 0.1 µM in each case.

As for `CCn1c(=O)c(-c2c(C)cc(F)cc2C)cc2cnc(Nc3ccc(N(C)C4CCN(C)CC4)cn3)cc21` [Compound 124, 1-ethyl-3-(4-fluoro-2,6-dimethylphenyl)-7-((5-(methyl(1-methylpiperidin-4-yl)amino)pyridin-2-yl)amino)-1,6-naphthyridin-2(1H)-one], the EC50 is less than 1 µM in the assay with DoHH2 (DOHH-2, 48 hrs) and more than 10 µM in the assay with Ramos (setting [3]). Further, the IC50 at Src, on Lyn [2] and at BTK (read-out: BTK IC50) was less than 0.1 µM in each case.

On to `CN1CCC(N(C)c2ccc(Nc3cc4[nH]c(=O)c(-c5c(F)cccc5F)cc4cn3)nc2)CC1` [Compound 140, 3-(2,6-difluorophenyl)-7-((5-(methyl(1-methylpiperidin-4-yl)amino)pyridin-2-yl)amino)-1,6-naphthyridin-2(1H)-one], for which the EC50 with DoHH2 (DOHH-2, 48 hrs) is less than 1 µM; in the assay on Ramos (setting [3]), 1 to 10 µM. Further, the IC50 at Src, at Lyn [2] and at BTK (read-out: BTK IC50) was less than 0.1 µM in each case.

`CCn1c(=O)c(C2CCCCC2)cc2cnc(Nc3ccc(C)cn3)cc21` [Compound 12, 3-Cyclohexyl-1-ethyl-7-(5-methyl-pyridin-2-ylamino)-1H-[1,6]naphthyridin-2-one]: the EC50 is more than 10 µM with DoHH2 (DOHH-2, 48 hrs) and more than 10 µM with Ramos (setting [3]). The IC50 on Src, on Lyn [2] and at BTK (read-out: BTK IC50) was more than 5 µM in each case.

In the case of `CCN(CC)CCOc1ccc(Nc2cc3c(cn2)cc(-c2ccccc2)c(=O)n3C2CCCCC2)nc1` [Compound 74, 1-cyclohexyl-7-(5-(2-(diethylamino)ethoxy)pyridin-2-ylamino)-3-phenyl-1,6-naphthyridin-2(1H)-one], the EC50 in the assay with DoHH2 (DOHH-2, 48 hrs) lay in the range of 1 to 10 µM; in the assay on Ramos (setting [3]) it was 1 to 10 µM. Further, the IC50 was less than 0.1 µM at Src and 1 to 5 µM against Lyn [1].

As for `CCn1c(=O)c(-c2ccc(F)cc2)cc2cnc(Nc3ccc(C)cn3)cc21` [Compound 26], the EC50 with DoHH2 (DOHH-2, 48 hrs) is more than 10 µM; with Ramos (setting [3]), more than 10 µM. Further, the IC50 at Src, at Lyn [2] and at BTK (read-out: BTK IC50) was more than 5 µM in each case.

Turning to `CCn1c(=O)c(Br)cc2cnc(Nc3ccc(C)cn3)cc21` [Compound 88], the EC50 was less than 1 µM in the assay on DoHH2 (DOHH-2, 48 hrs) and less than 1 µM with Ramos (setting [4]). In addition, the IC50 at Src is less than 0.1 µM; at Lyn [2], more than 5 µM; against BTK it was 0.1 to 1 µM.
